The text below walks through data of PubChem BioAssay (NCI).

Some test systems named below: LOX IMVI melanoma; MDA-MB-231 breast; OVCAR-5 ovarian; RXF 393 renal; SK-MEL-2 melanoma; SNB-75 CNS; UACC-257 melanoma; UACC-62 melanoma; KM20L2 colon.
Common to all, as to test: NCI anticancer screen, dose series, 48 h

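Briefly, cells in 96-well plates were exposed to five compound concentrations for 48 h, and endpoints were estimated by linear interpolation. GI50 marks 50% less growth. TGI marks complete inhibition of growth.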

For the compound `CN(C)C(=O)c1cc2cnc(Nc3ccc(-c4csc5c(=O)cc(N6CCNCC6)oc45)cc3)nc2n1C1CCCC1`, the GI50 was 0.85 µM with LOX IMVI melanoma; 0.71 µM in the experiment on MDA-MB-231 breast; 0.491 µM with OVCAR-5 ovarian; 0.27 µM in the experiment with RXF 393 renal; 2.09 µM in the experiment on SK-MEL-2 melanoma; 0.313 µM in the experiment with SNB-75 CNS. Further, the GI50 with UACC-257 melanoma is 5.28 µM; in the experiment on UACC-62 melanoma, 1.44 µM. Moreover, the TGI came out at 2.22 µM in the experiment with LOX IMVI melanoma; 2.24 µM in the experiment with MDA-MB-231 breast; 5.11 µM in the experiment on OVCAR-5 ovarian; 1.03 µM with RXF 393 renal; 7.14 µM in the experiment on SK-MEL-2 melanoma; 2.03 µM in the experiment on SNB-75 CNS. In addition, the results for the TGI with UACC-257 melanoma and with UACC-62 melanoma were 22.9 µM and 8.69 µM, respectively.
As to `CO[C@H]1C[C@@H]2CC[C@@H](C)[C@@](O)(O2)C(=O)C(=O)N2CCCC[C@H]2C(=O)O[C@H]([C@H](C)C[C@@H]2CC[C@@H](OP(C)(C)=O)[C@H](OC)C2)CC(=O)[C@H](C)/C=C(\C)[C@@H](O)[C@@H](OC)C(=O)[C@H](C)C[C@H](C)/C=C/C=C/C=C/1C`, the GI50 with LOX IMVI melanoma was below 0.01 µM; with MDA-MB-231 breast it was 12.4 µM; in the experiment with OVCAR-5 ovarian it was 11.4 µM; in the experiment with RXF 393 renal it was below 0.01 µM; in the experiment on SK-MEL-2 melanoma, 2.31 µM; with SNB-75 CNS, below 0.01 µM. Further, the GI50 with UACC-257 melanoma was 3.21 µM; with UACC-62 melanoma, 0.386 µM. In addition, the TGI came to 21.7 µM with LOX IMVI melanoma; 27.7 µM with MDA-MB-231 breast; 27.6 µM in the experiment on OVCAR-5 ovarian; 16.4 µM in the experiment on RXF 393 renal; 22.4 µM in the experiment with SK-MEL-2 melanoma; 15.7 µM with SNB-75 CNS. In addition, the TGI came out at 21.8 µM in the experiment on UACC-257 melanoma and 20.7 µM in the experiment with UACC-62 melanoma.
Turning to `CCN(CC)CCCOc1cc(O)c2c(=O)cc(-c3ccccc3)oc2c1`, the GI50 with LOX IMVI melanoma was 3.75 µM; with MDA-MB-231 breast, 6.54 µM; in the experiment with OVCAR-5 ovarian, 13 µM; in the experiment on RXF 393 renal, 11.6 µM; in the experiment with SK-MEL-2 melanoma, 10.1 µM; with SNB-75 CNS, 8.36 µM. Besides, the results for the GI50 in the experiment on UACC-257 melanoma and with UACC-62 melanoma were 3.4 µM and 3.89 µM, respectively. For the same compound, the TGI with LOX IMVI melanoma came to 14.1 µM; with MDA-MB-231 breast, 18.9 µM; in the experiment on OVCAR-5 ovarian, 25.7 µM; with RXF 393 renal, 28.8 µM; in the experiment with SK-MEL-2 melanoma, 27 µM; in the experiment on SNB-75 CNS, 22.3 µM. The results for the TGI in the experiment with UACC-257 melanoma and with UACC-62 melanoma were 12.5 µM and 12.7 µM, respectively.
For the compound `C=CC(=O)N1CCC([C@@H]2CCNc3c(C(N)=O)c(-c4ccc(Oc5ccccc5)cc4)nn32)CC1`, the GI50 in the experiment on LOX IMVI melanoma was 15.2 µM; with MDA-MB-231 breast, 18.4 µM; with OVCAR-5 ovarian, 22.2 µM; in the experiment with RXF 393 renal, 9.05 µM; in the experiment on SK-MEL-2 melanoma, 18.2 µM; in the experiment with SNB-75 CNS it was 5.39 µM. The GI50 is 16.5 µM in the experiment on UACC-257 melanoma and 11.4 µM with UACC-62 melanoma. Also, the TGI was 36.3 µM with LOX IMVI melanoma; 56.4 µM with MDA-MB-231 breast; above 100 µM in the experiment on OVCAR-5 ovarian; 25.5 µM in the experiment on RXF 393 renal; 40 µM in the experiment on SK-MEL-2 melanoma; 30.6 µM in the experiment on SNB-75 CNS. The TGI in the experiment with UACC-257 melanoma came out at 50.4 µM; in the experiment with UACC-62 melanoma it was 26.6 µM.
Take `O=C(/C=C/c1ccccc1O)c1cccnc1`: the TGI in the experiment on KM20L2 colon, in the experiment with LOX IMVI melanoma, in the experiment on OVCAR-5 ovarian, in the experiment on RXF 393 renal, in the experiment on SK-MEL-2 melanoma and with SNB-75 CNS was above 100 µM in each case. Further, the TGI in the experiment on UACC-257 melanoma and in the experiment with UACC-62 melanoma was above 100 µM in each case.
Consider `COc1cc2nc(N3CCCC3)nc(Nc3ccccc3)c2cc1OC`, for which the GI50 is 0.201 µM with LOX IMVI melanoma; 1.56 µM with MDA-MB-231 breast; 1.75 µM in the experiment with OVCAR-5 ovarian; 1.4 µM in the experiment on RXF 393 renal; 2.09 µM in the experiment on SK-MEL-2 melanoma; 1.39 µM in the experiment with SNB-75 CNS. The GI50 with UACC-257 melanoma is 1.86 µM; in the experiment on UACC-62 melanoma it was 1.73 µM. Also, the TGI in the experiment with LOX IMVI melanoma worked out at 0.479 µM; in the experiment with MDA-MB-231 breast it was 3.11 µM; in the experiment on OVCAR-5 ovarian, 3.14 µM; in the experiment with RXF 393 renal it was 2.78 µM; in the experiment on SK-MEL-2 melanoma it was 4.16 µM; in the experiment with SNB-75 CNS, 2.7 µM. Moreover, the TGI in the experiment on UACC-257 melanoma turned out to be 3.79 µM; in the experiment on UACC-62 melanoma, 3.23 µM.
As for `CC1(C)N=C(N)N=C(N)N1c1cccc(CCCCc2ccccc2)c1`, the GI50 was 0.062 µM in the experiment on LOX IMVI melanoma; 2.47 µM in the experiment on MDA-MB-231 breast; 11.1 µM with OVCAR-5 ovarian; 2.28 µM with RXF 393 renal; 1.82 µM in the experiment with SK-MEL-2 melanoma; 3.06 µM with SNB-75 CNS. The values for the GI50 in the experiment on UACC-257 melanoma and in the experiment on UACC-62 melanoma were 0.78 µM and 0.186 µM, respectively. Further, the TGI in the experiment with LOX IMVI melanoma worked out at 14.9 µM; with MDA-MB-231 breast, 21.3 µM; in the experiment with OVCAR-5 ovarian, 25.9 µM; with RXF 393 renal it was 17.2 µM; in the experiment with SK-MEL-2 melanoma, 11.4 µM; in the experiment with SNB-75 CNS, 16.3 µM. The results for the TGI in the experiment on UACC-257 melanoma and in the experiment on UACC-62 melanoma were 12.1 µM and 10.9 µM, respectively.
Regarding `c1ccc(-c2nnc(Nc3ccc4c(c3)OCCO4)o2)c(NCc2ccncc2)c1`, the GI50 in the experiment with LOX IMVI melanoma is 0.0459 µM; in the experiment with MDA-MB-231 breast, 0.0769 µM; with OVCAR-5 ovarian, 0.0904 µM; with RXF 393 renal, below 0.01 µM; with SK-MEL-2 melanoma, 0.16 µM; in the experiment on SNB-75 CNS it was 0.0125 µM. Besides, the GI50 in the experiment on UACC-257 melanoma is 3.97 µM; in the experiment with UACC-62 melanoma, 0.0312 µM. The TGI is above 100 µM in the experiment with LOX IMVI melanoma; above 100 µM in the experiment on MDA-MB-231 breast; 79 µM in the experiment on OVCAR-5 ovarian; 0.0421 µM in the experiment on RXF 393 renal; 22.3 µM in the experiment with SK-MEL-2 melanoma; 12.1 µM in the experiment on SNB-75 CNS. Besides, the TGI in the experiment on UACC-257 melanoma was above 62.4 µM; in the experiment with UACC-62 melanoma it was above 100 µM.
Consider `COc1ccc2[nH]c(=O)c(/C=C/C(=O)/C=C/c3ccc(O)c(OC)c3)cc2c1`, for which the GI50 in the experiment with LOX IMVI melanoma is 1.54 µM; in the experiment on MDA-MB-231 breast, 1.92 µM; in the experiment with OVCAR-5 ovarian, 1.88 µM; with RXF 393 renal, 1.5 µM; in the experiment with SK-MEL-2 melanoma, 2.47 µM; in the experiment with SNB-75 CNS it was 2.96 µM. The GI50 is 1.58 µM in the experiment on UACC-257 melanoma and 1.52 µM in the experiment on UACC-62 melanoma. The TGI was determined as 3.18 µM in the experiment on LOX IMVI melanoma; 3.78 µM in the experiment on MDA-MB-231 breast; 3.66 µM with OVCAR-5 ovarian; 2.9 µM in the experiment on RXF 393 renal; 6.24 µM with SK-MEL-2 melanoma; 14.4 µM in the experiment with SNB-75 CNS. Moreover, the TGI worked out at 3.09 µM with UACC-257 melanoma and 3.19 µM with UACC-62 melanoma.
